Data: the SangsterLogP compilation

Experiment: method code SF-HPLC, from DOI: 10.1021/jm4016729, PMID: 24422550
Details: pH 7.4

Row | SMILES | logD
1 | Cc1nc(C2=COC2)c(C(=O)NC2C3CC4CC2C(O)(C4)C3)s1 (configuration not stated) | 1.5
2 | O=C(NC1C2CC3CC1CC(O)(C3)C2)c1sc(C2CCCO2)nc1C1CC1 (configuration not stated) | 2.4
